Reference: patent publication US12559454B2, “Benzenesulfonamide derivatives and uses thereof” (2692372 Ontario, Inc., priority 2019, dated 2026)
Several values for one entry are separate records, joined by “and”; a condition that tells them apart may be missing. Equal entries are not always repeated. Where two headings read alike, the source gives them in different places.

Assays:
[1] = test system: tubulin; assay: Tubulin polymerization assay; assay type: biochemical; settings: for % Inhibition: Vmax normalized to tubulin only control; for % D.O.P.: degree of polymerization relative to tubulin control
Procedure, shortened: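 Purified tubulin (3 mg/mL in the polymerization mix) in 80 mM PIPES pH 6.9, 2 mM MgCl2, 0.5 mM EGTA, 1 mM GTP, 10.2% glycerol was added to inhibitor at 37 °C. A340 read every 15 s for 30 min; maximal baseline-subtracted change relative to tubulin-only control gave % degree of polymerization.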

[2] = Intrinsic clearance in mouse hepatocyte; assay type: in vitro ADME; settings: hepatocytes
Protocol: A stock of 100 μM test compound was prepared by diluting the 10 mM test compound in DMSO with a solution of 50% acetonitrile and 50% water. In a 96-well non-coated plate, 198 μL of hepatocytes was pipetted, and the plate was placed in the incubator on an orbital shaker to allow the hepatocytes to warm for 10 minutes. To this solution was added 2 μL of the 100 μM test compound to start the reaction, and the plate was placed on an orbital shaker. […] The reaction solution was then vortexed for 10 minutes and centrifuged at 4,000 rpm for 30 minutes at 4° C. 400 μL of the supernatant was transferred to one new 96-well plate. Centrifuged at 4,000 rpm for 30 minutes at 4° C. Transfer 100 μL of the supernatant to a new 96-well plate ensuring the pellet was not disturbed. Add 100 μL of ultrapure water to all samples for analysis by LC-MS/MS. Bioanalytical method: Column—Phenomenex Synergi 4μ Hydro-PR 80A (2.0×30 mm). Mobile phase—0.1% formic acid in water (solvent A) and 0.1% formic acid in acetonitrile (solvent B). Column temperature—room temperature. Injection volume—10 μL. MS analysis—API 4000 instrument from AB Inc (Canada) with an ESI interface.

[3] = Parallel artificial membrane permeability assay (PAMPA), Example D4; settings: for recovery at 16 h, 10 μM: pH 7.4
Protocol: (§2) 1) The stock solutions of positive controls were prepared in DMSO at the concentration of 10 mM. Testosterone and methotrexate were used as control compounds in this assay. 2) Prepare a stock solution of compounds in DMSO at the concentration of 10 mM, and further dilute with PBS (pH 7.4). The final concentration of the test compound is 10 μM.
(§3) Assay Procedures. […] 2)Carefully pipette 5 μL of the lecithin/dodecane mixture into each acceptor plate well (top compartment), avoiding pipette tip contact with the membrane. 3) Immediately after the application of the artificial membrane (within 10 minutes), add 300 μL of PBS (pH 7.4) solution to each well of the acceptor plate. Add 300 μL of drug-containing solutions to each well of the donor plate (bottom compartment) in triplicate. 4) Slowly and carefully place the acceptor plate into the donor plate, making sure the underside of the membrane is in contact with the drug-containing solutions in all wells. 5) Replace the plate lid and incubate at 25° C., 60 rpm for 16 hours. 6) After incubation, aliquots of 50 μL from each well of acceptor and donor plate are transferred into a 96-well plate. Add 200 μL of methanol (containing IS: 100 nM Alprazolam, 200 nM Labetalol and 2 μM Ketoprofen) into each well. 7) Cover with plate lid. Vortex at 750 rpm for 100 seconds. Samples were centrifuged at 3,220 g for 20 minutes. Determine the compound concentrations by LC/MS/MS.

[4] = PAMPA, 16 h, 10 μM, pH 7.4
Protocol: as §2, §3

[5] = molecular target: T1, BTK (Homo sapiens, UniProt Q06187); assay: In vitro BTK inhibition (no preincubation); assay type: biochemical; settings: Table 17
[6] = molecular target: T2, BMX (Homo sapiens, UniProt P51813); assay: In vitro kinase inhibition, BMX; assay type: biochemical
T2 sequence (P51813 1-675): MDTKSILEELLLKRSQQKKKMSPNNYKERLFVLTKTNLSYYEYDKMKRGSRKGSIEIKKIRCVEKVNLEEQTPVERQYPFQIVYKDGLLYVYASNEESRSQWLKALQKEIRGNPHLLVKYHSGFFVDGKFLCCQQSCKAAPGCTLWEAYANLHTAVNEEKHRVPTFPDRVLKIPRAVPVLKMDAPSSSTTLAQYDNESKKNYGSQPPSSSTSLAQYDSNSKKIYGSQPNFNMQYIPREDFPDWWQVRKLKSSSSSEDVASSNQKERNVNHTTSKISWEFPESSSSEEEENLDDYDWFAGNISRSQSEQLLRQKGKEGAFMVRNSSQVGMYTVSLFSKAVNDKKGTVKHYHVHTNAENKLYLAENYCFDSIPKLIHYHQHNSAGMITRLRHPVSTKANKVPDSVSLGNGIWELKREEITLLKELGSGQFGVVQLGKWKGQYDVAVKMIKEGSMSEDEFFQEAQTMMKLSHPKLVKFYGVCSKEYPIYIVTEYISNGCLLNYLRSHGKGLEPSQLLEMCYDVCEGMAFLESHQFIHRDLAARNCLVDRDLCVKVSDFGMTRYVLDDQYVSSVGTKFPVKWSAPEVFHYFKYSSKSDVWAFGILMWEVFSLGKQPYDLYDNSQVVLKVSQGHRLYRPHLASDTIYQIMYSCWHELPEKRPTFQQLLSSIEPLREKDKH

[7] = molecular target: T3, NanoLuc-BTK fusion protein (Homo sapiens, UniProt Q06187); assay: NanoBRET target engagement assay in HEK 293 cells; assay type: cell-based; settings: tracer K-5, 2 hours
T3 construct: host or cells: HEK 293 cells
From the text: Bioluminescence Resonance Energy Transfer (BRET) is used to quantitatively measure the interaction between proteins in live cells. The NanoBRET Target Engagement (TE) Assay ((Promega, Cat #N2500)) measures the apparent binding affinity of test compounds at select kinase proteins by competitive displacement of a fluorescent NanoBRET kinase-ligand tracer (K-5), from a target kinase fused to a NanoLuc luciferase protein within intact cells. To determine whether test compounds can bind BTK, a fixed concentration of NanoBRET tracer is added to cells expressing the NanoLuc-BTK fusion protein, thereby generating a BRET reporter complex. Application of competitive test compounds results in a dose-dependent decrease in NanoBRET™ energy transfer, which allows quantitation of apparent intracellular affinity of the BTK target protein for the test compound.
In order to evaluate the binding between BTK and test compounds, an intracellular drug displacement assay was performed. […] The plates were then analyzed with a Biotek Synergy Neo2 plate reader equipped with NanoBRET 618 filters (donor 450 nm/8 nm BP and acceptor 600 nm LP). […] BRET ratios are expressed as milliBRET units (mBU), where 1 mBU corresponds to the corrected BRET ratio multiplied by 1000.

[8] = molecular target: T1, BTK; assay: BTK irreversible inhibition, enzyme kinetic analysis; assay type: biochemical; settings: 500 μM ATP
Protocol: One of ordinary skill in the art will recognize that this is consistent with the irreversible inhibition of BTK by compound I-A1.
One of ordinary skill in the art will recognize that this is consistent with the irreversible inhibition of BTK by compound I-A6.
One of ordinary skill in the art will recognize that this is consistent with the irreversible inhibition of BTK by compound 3A-2.
The shift of IC50 to a lower value after pre-incubation of the enzyme indicates to one of ordinary skill in the art that a significant portion of the enzyme was inhibited irreversibly during the incubation period.

[9] = molecular target: T1, BTK; assay: BTK washout experiment; assay type: biochemical; settings: 6-h incubation, 50 nM BTK, 280 nM compound, 400-fold dilution
Protocol: After a 3-h incubation of 40 nM BTK in the presence of 296 nM of compound I-A1, a 400-fold dilution was performed to remove excess inhibitor.
After a 6-h incubation of 50 nM BTK in the presence of 280 nM of compound 3A-6, a 400-fold dilution was performed to remove excess inhibitor.
By way of contrast, a “washout” experiment performed with ARQ-531 gives a very different result, because this compound lacks a warhead and is known to inhibit BTK reversibly. After a 6-h incubation of 50 nM BTK in the presence of 177 nM of ARQ-531, a 400-fold dilution was performed to remove excess inhibitor. […] This indicates to one of ordinary skill in the art that the enzyme was not inhibited irreversibly during the incubation with ARQ-531.

[10] = molecular target: T4, His-tagged BTK kinase domain (Homo sapiens, UniProt Q06187); assay: Mass spectral analysis of tryptic digest of BTK kinase domain; assay type: binding; settings: 10 μM BTK KD, 10 μM compound, 45 min; tryptic peptide 467-487
T4 construct: Intact His-tagged BTK kinase domain (SOURCE)(10 μM) was incubated
Protocol: A protein kinase that is inhibited by compound and/or pharmaceutically acceptable salt of the present disclosure may be subjected to mass spectral analysis to assess the formation of permanent, irreversible covalent adducts. […] Such methods identify permanent, irreversible covalent protein adducts by observing a mass peak that corresponds to the mass of a control sample plus the mass of an irreversible adduct.
After the incubation time, the reactions were quenched by acetone precipitation and the pellet was re-dissolved in 8 M Urea. […] The BTK protein band was then excised and subjected to an in-gel trypsin digest by reducing the protein (5 mM DTT), alkylating the thiols with iodoacetamide (15 mM), and then incubating the protein gel band with trypsin in a 37 C water bath (4 hours). The tryptic digestion was then quenched by the addition of trifluoroacetic acid, and peptides were removed from the gel band by sonicating with increasing amounts of acetonitrile (0%, 30%, & 60%). Peptides were then purified using C18 ziptips, spotted on the MALDI target plate with α-cyano-4-hydroxycinnamic acid as the desorption matrix (10 mg/mL in 0.10% TFA:Acetonitrile 50:50), and analyzed in reflectron mode.

[11] = test system: MV4-11 cells; assay: CellTiter-Blue cell viability, MV-4-11; assay type: cell-based; settings: Homo sapiens, 72 hrs exposure
Procedure, shortened: (§1)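 Cells plated at 1×10^4 per well, compound (0.097656-50 μM) added after 24 hrs and exposed 72 hrs at 37° C, 5% CO2. Viability by CellTiter-Blue, 1-4 h incubation, fluorescence at 560/590 nm.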

[12] = test system: K562 cells; assay: CellTiter-Blue cell viability, K562; assay type: cell-based; settings: Homo sapiens, 72 hrs exposure
Procedure, shortened: as §1

[13] = test system: MOLM-13 cells; assay: CellTiter-Blue cell viability, MOLM-13; assay type: cell-based; settings: Homo sapiens, 72 hrs exposure
Procedure, shortened: as §1

[14] = Plasma concentration in Balb/C nude mice
Protocol: IP administration at 40 mg/kg
Bioanalytical assay: Mobile phase: Solvent A=Water (0.1% Formic acid, 5% Acetonitrile), Solvent B=Acetonitrile (0.1% Formic acid, 5% Water), Column: Agilent ZORBAX XDB-Phenyl 5 μm (50×2.10 mm), MS: AB API 5500 LC/MS/MS instrument, HPLC: Shimadzu (DGU-20A5R)
Mouse species: Balb/C nude mice

[15] = Reactivity profiling with glutathione, HPLC method; assay type: physicochemical; settings: IMDM buffer with 10% FBS and 5 mM GSH, 25 μM compound
Protocol: The rate of compound degradation is determined by the integrated area of the analytical peak corresponding to the intact compound (t=0) after each sampling time. The elution time was 13 minutes with the flow rate of 1.2 ml/min. The mobile phase was consisted of phase A and B. Mobile phase A was analytical grade acetonitrile (+0.1% formic acid) and mobile phase B was Milli-Q water (+0.1% formic acid). Each compound was tested in duplicate. The data was processed and analyzed using GraphPad.

T1 sequence (Q06187 whole entry, species assumed): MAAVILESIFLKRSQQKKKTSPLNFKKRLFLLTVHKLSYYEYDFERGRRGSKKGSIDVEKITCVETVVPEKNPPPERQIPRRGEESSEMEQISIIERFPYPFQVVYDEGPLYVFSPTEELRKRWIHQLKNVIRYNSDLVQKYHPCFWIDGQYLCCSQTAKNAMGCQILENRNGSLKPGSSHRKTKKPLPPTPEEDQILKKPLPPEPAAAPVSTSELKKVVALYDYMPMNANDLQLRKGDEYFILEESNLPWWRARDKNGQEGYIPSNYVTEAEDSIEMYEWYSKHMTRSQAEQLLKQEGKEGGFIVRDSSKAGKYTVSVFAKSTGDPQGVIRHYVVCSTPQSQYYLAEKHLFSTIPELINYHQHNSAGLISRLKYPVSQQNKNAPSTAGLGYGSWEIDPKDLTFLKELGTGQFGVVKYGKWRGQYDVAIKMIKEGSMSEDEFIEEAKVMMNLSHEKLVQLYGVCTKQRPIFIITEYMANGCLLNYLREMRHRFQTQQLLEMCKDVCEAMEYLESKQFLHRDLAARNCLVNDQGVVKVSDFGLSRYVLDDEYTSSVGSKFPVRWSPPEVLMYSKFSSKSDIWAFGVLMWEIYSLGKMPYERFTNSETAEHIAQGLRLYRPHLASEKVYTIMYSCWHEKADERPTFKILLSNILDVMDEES
T4 sequence (Q06187 402-655 limits assumed): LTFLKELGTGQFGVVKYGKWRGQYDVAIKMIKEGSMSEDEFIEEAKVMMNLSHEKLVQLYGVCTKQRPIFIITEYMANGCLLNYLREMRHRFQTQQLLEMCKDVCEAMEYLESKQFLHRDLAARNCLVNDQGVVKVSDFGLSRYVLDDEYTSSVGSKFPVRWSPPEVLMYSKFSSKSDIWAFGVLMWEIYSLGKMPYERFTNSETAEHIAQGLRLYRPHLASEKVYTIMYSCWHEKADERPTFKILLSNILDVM
T3 sequence (Q06187 whole entry, the tested form may be a part): as the sequence (Q06187 whole entry, species assumed) above

Structure (SMILES): COc1ccc(NS(=O)(=O)c2c(F)c(F)c(F)c(F)c2F)cc1F [Batabulin, batabulin, reference compound]
- % Inhibition [1]: C (>20%)
- % D.O.P. [1]: B (< 85%)
- half-life at 1 μM [2]: ≤ 0.167 h
- recovery at 16 h, 10 μM [3]: 67.4%
- −Log Pe [4]: 5.00

Structure (SMILES): COc1c(F)c(F)c(F)c(F)c1S(=O)(=O)N1CCC[C@@H](n2nc(-c3ccc(Oc4ccccc4)cc3)c3c(N)ncnc32)C1 [Compound 3A-1, (R)-3-(4-phenoxyphenyl)-1-(1-((2,3,4,5-tetrafluoro-6-methoxyphenyl)sulfonyl)piperidin-3-yl)-1H-pyrazolo[3,4-d]pyrimidin-4-amine]
- IC50 [5]: 100 to 1000 nM
- IC50 [6]: 10 to 100 nM

Structure (SMILES): COc1c(F)c(F)c(F)c(F)c1S(=O)(=O)NCCn1nc(-c2ccc(Oc3ccccc3)cc2)c2c(N)ncnc21 [Compound 3A-6, N-(2-(4-amino-3-(4-phenoxyphenyl)-1H-pyrazolo[3,4-d]pyrimidin-1-yl)ethyl)-2,3,4,5-tetrafluoro-6-methoxybenzenesulfonamide]
- IC50 [7]: 94 nM
- IC50 ([8]; no pre-incubation, read-out: IC50 against BTK not pre-incubated): 109 nM
- IC50 ([8]; after 3-h incubation of 50 nM BTK with 280 nM compound, read-out: IC50 against pre-incubated BTK): 13.9 nM
- IC50 [5]: 100 to 1000 nM
- inhibition at 0.28 µM ([9]; read-out: enzyme inhibited irreversibly): 87%
- remaining activity at 0.28 µM ([9]; relative to DMSO, read-out: residual activity of the enzyme): 13%
- C481 covalent modification [10]: covalent modification and ✓

Structure (SMILES): COc1ccc(NS(=O)(=O)c2c(F)c(F)c(F)c(F)c2OC2CC2)cc1F [Compound I-75, 2-cyclopropoxy-3,4,5,6-tetrafluoro-N-(3-fluoro-4-methoxyphenyl)benzenesulfonamide]
- IC50 [11]: ≤ 100 nM
- IC50 [12]: 100 to 1000 nM
- IC50 [13]: 100 to 1000 nM
- Cmax ([14]; Balb/C nude, mouse, ip, 40 mg/kg): < 20 ng/mL and < 50 µM
- K (h^−1) ([14]; IP 40 mg/kg, Balb/C nude mice): A (≤5 h^−1)
- % Inhibition [1]: B (10-20%)
- % D.O.P. [1]: B (< 85%)
- half-life at 1 μM [2]: 1.67 to 16.7 h
- −Log Pe ([3]; PBS pH 7.4, 10 μM, 16 hours): 5.02
- recovery at 16 h, 10 μM [3]: 94.9%
- half-life at 25 μM [15]: 1.67 to 16.7 h
